Test results: PubChem BioAssay (NCI)
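Results reflect a 48-hour exposure of cells in 96-well plates to compound at five concentrations. The concentration for 50% growth inhibition is given as GI50. At the TGI there is no net growth.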

Tests used:
Assay in all cases: growth of human tumour cells (NCI), 48 h
786-0 renal = tested on: 786-0 renal
A549 NSCLC = tested on: A549 NSCLC
ACHN renal = tested on: ACHN renal
BT-549 breast = tested on: BT-549 breast
CCRF-CEM leukemia = tested on: CCRF-CEM leukemia
COLO 205 colon = tested on: COLO 205 colon
DU-145 prostate = tested on: DU-145 prostate
HCC-2998 colon = tested on: HCC-2998 colon
HCT-116 colon = tested on: HCT-116 colon
HCT-15 colon = tested on: HCT-15 colon
HL-60(TB) leukemia = tested on: HL-60(TB) leukemia
HOP-62 NSCLC = tested on: HOP-62 NSCLC
HOP-92 NSCLC = tested on: HOP-92 NSCLC
HS 578T breast = tested on: HS 578T breast
HT29 colon = tested on: HT29 colon
IGROV1 ovarian = tested on: IGROV1 ovarian
K-562 leukemia = tested on: K-562 leukemia
KM12 colon = tested on: KM12 colon
M14 melanoma = tested on: M14 melanoma
MALME-3M melanoma = tested on: MALME-3M melanoma
MCF7 breast = tested on: MCF7 breast
MDA-MB-231 breast = tested on: MDA-MB-231 breast
MDA-MB-435 = tested on: MDA-MB-435
MOLT-4 leukemia = tested on: MOLT-4 leukemia
NCI-H226 lung = tested on: NCI-H226 lung
NCI-H23 lung = tested on: NCI-H23 lung
NCI-H460 lung = tested on: NCI-H460 lung
NCI-H522 lung = tested on: NCI-H522 lung
NCI/ADR-RES ovarian = tested on: NCI/ADR-RES ovarian
OVCAR-3 ovarian = tested on: OVCAR-3 ovarian
OVCAR-4 ovarian = tested on: OVCAR-4 ovarian
OVCAR-5 ovarian = tested on: OVCAR-5 ovarian
OVCAR-8 ovarian = tested on: OVCAR-8 ovarian
PC-3 prostate = tested on: PC-3 prostate
RPMI-8226 leukemia = tested on: RPMI-8226 leukemia
RXF 393 renal = tested on: RXF 393 renal
SF-268 CNS = tested on: SF-268 CNS
SF-295 CNS = tested on: SF-295 CNS
SF-539 CNS = tested on: SF-539 CNS
SK-MEL-28 melanoma = tested on: SK-MEL-28 melanoma
SK-MEL-5 melanoma = tested on: SK-MEL-5 melanoma
SK-OV-3 ovarian = tested on: SK-OV-3 ovarian
SN12C renal = tested on: SN12C renal
SNB-19 CNS = tested on: SNB-19 CNS
SNB-75 CNS = tested on: SNB-75 CNS
SR leukemia = tested on: SR leukemia
SW-620 colon = tested on: SW-620 colon
T-47D breast = tested on: T-47D breast
TK-10 renal = tested on: TK-10 renal
U251 CNS = tested on: U251 CNS
UACC-257 melanoma = tested on: UACC-257 melanoma
UACC-62 melanoma = tested on: UACC-62 melanoma
A498 renal = tested on: A498 renal
CAKI-1 renal = tested on: CAKI-1 renal
SK-MEL-2 melanoma = tested on: SK-MEL-2 melanoma
UO-31 renal = tested on: UO-31 renal

Compound: O=c1cc(-c2ccccc2)[nH]c2ccc(S)cc12
- TGI (786-0 renal): > 100 µM
- TGI (A549 NSCLC): > 100 µM
- TGI (ACHN renal): 99.7 µM
- TGI (BT-549 breast): 55.2 µM
- TGI (CCRF-CEM leukemia): > 100 µM
- TGI (COLO 205 colon): > 100 µM
- TGI (DU-145 prostate): > 100 µM
- TGI (HCC-2998 colon): 51.9 µM
- TGI (HCT-116 colon): 66.9 µM
- TGI (HCT-15 colon): 48 µM
- TGI (HL-60(TB) leukemia): > 100 µM
- TGI (HOP-62 NSCLC): > 100 µM
- TGI (HOP-92 NSCLC): 91.5 µM
- TGI (HS 578T breast): > 100 µM
- TGI (HT29 colon): 93.1 µM
- TGI (IGROV1 ovarian): > 100 µM
- TGI (K-562 leukemia): > 100 µM
- TGI (KM12 colon): > 100 µM
- TGI (M14 melanoma): 84.8 µM
- TGI (MALME-3M melanoma): 57.7 µM
- TGI (MCF7 breast): > 100 µM
- TGI (MDA-MB-231 breast): > 100 µM
- TGI (MDA-MB-435): 45.4 µM
- TGI (MOLT-4 leukemia): 39.8 µM
- TGI (NCI-H226 lung): 81.9 µM
- TGI (NCI-H23 lung): > 100 µM
- TGI (NCI-H460 lung): > 100 µM
- TGI (NCI-H522 lung): 64.5 µM
- TGI (NCI/ADR-RES ovarian): 56.3 µM
- TGI (OVCAR-3 ovarian): > 100 µM
- TGI (OVCAR-4 ovarian): > 100 µM
- TGI (OVCAR-5 ovarian): > 100 µM
- TGI (OVCAR-8 ovarian): > 100 µM
- TGI (PC-3 prostate): > 100 µM
- TGI (RPMI-8226 leukemia): > 100 µM
- TGI (RXF 393 renal): 68.2 µM
- TGI (SF-268 CNS): > 100 µM
- TGI (SF-295 CNS): > 100 µM
- TGI (SF-539 CNS): > 100 µM
- TGI (SK-MEL-28 melanoma): 64.6 µM
- TGI (SK-MEL-5 melanoma): 29.5 µM
- TGI (SK-OV-3 ovarian): > 100 µM
- TGI (SN12C renal): 37 µM
- TGI (SNB-19 CNS): > 100 µM
- TGI (SNB-75 CNS): 76.1 µM
- TGI (SR leukemia): > 100 µM
- TGI (SW-620 colon): > 100 µM
- TGI (T-47D breast): 68 µM
- TGI (TK-10 renal): 79.6 µM
- TGI (U251 CNS): > 100 µM
- TGI (UACC-257 melanoma): > 100 µM
- TGI (UACC-62 melanoma): > 100 µM

Compound: C[C@]12CC[C@@H]3c4ccc(O)cc4CC[C@H]3[C@@H]1CC[C@@H]2NS(=O)(=O)c1ccc(Br)cc1
- GI50 (786-0 renal): 3.07 µM
- TGI (786-0 renal): 8.86 µM
- GI50 (A498 renal): 1.61 µM
- TGI (A498 renal): 3.7 µM
- GI50 (A549 NSCLC): 2.89 µM
- TGI (A549 NSCLC): 11.1 µM
- GI50 (ACHN renal): 3.17 µM
- TGI (ACHN renal): 11.1 µM
- GI50 (BT-549 breast): 2.27 µM
- TGI (BT-549 breast): 4.72 µM
- GI50 (CAKI-1 renal): 3.12 µM
- TGI (CAKI-1 renal): 10.2 µM
- GI50 (CCRF-CEM leukemia): 3.14 µM
- TGI (CCRF-CEM leukemia): > 100 µM
- GI50 (COLO 205 colon): 2.12 µM
- TGI (COLO 205 colon): 4.04 µM
- GI50 (DU-145 prostate): 3.91 µM
- TGI (DU-145 prostate): 12.7 µM
- GI50 (HCC-2998 colon): 3.21 µM
- TGI (HCC-2998 colon): 10.5 µM
- GI50 (HCT-116 colon): 2.29 µM
- TGI (HCT-116 colon): 5.16 µM
- GI50 (HL-60(TB) leukemia): 2.77 µM
- TGI (HL-60(TB) leukemia): 8.5 µM
- GI50 (HOP-62 NSCLC): 2.77 µM
- TGI (HOP-62 NSCLC): 6.14 µM
- GI50 (HOP-92 NSCLC): 1.76 µM
- TGI (HOP-92 NSCLC): 4.93 µM
- GI50 (HS 578T breast): 2.05 µM
- TGI (HS 578T breast): 6.15 µM
- GI50 (HT29 colon): 2.31 µM
- TGI (HT29 colon): 4.63 µM
- GI50 (IGROV1 ovarian): 3.85 µM
- TGI (IGROV1 ovarian): 12.1 µM
- GI50 (K-562 leukemia): 3.08 µM
- TGI (K-562 leukemia): > 100 µM
- GI50 (KM12 colon): 1.97 µM
- TGI (KM12 colon): 3.89 µM
- GI50 (M14 melanoma): 2.14 µM
- TGI (M14 melanoma): 4.66 µM
- GI50 (MALME-3M melanoma): 1.93 µM
- TGI (MALME-3M melanoma): 4.36 µM
- GI50 (MCF7 breast): 2.26 µM
- TGI (MCF7 breast): 4.64 µM
- GI50 (MDA-MB-231 breast): 2.01 µM
- TGI (MDA-MB-231 breast): 4.62 µM
- GI50 (MDA-MB-435): 1.84 µM
- TGI (MDA-MB-435): 3.97 µM
- GI50 (MOLT-4 leukemia): 3.26 µM
- TGI (MOLT-4 leukemia): 28.7 µM
- GI50 (NCI-H226 lung): 2.04 µM
- TGI (NCI-H226 lung): 4.17 µM
- GI50 (NCI-H23 lung): 3.44 µM
- TGI (NCI-H23 lung): 15.5 µM
- GI50 (NCI-H460 lung): 2.15 µM
- TGI (NCI-H460 lung): 4.81 µM
- GI50 (NCI/ADR-RES ovarian): 2.81 µM
- TGI (NCI/ADR-RES ovarian): 8.79 µM
- GI50 (OVCAR-3 ovarian): 2.18 µM
- TGI (OVCAR-3 ovarian): 4.43 µM
- GI50 (OVCAR-4 ovarian): 3.01 µM
- TGI (OVCAR-4 ovarian): 12.4 µM
- GI50 (OVCAR-5 ovarian): 2.31 µM
- TGI (OVCAR-5 ovarian): 6.03 µM
- GI50 (OVCAR-8 ovarian): 3.14 µM
- TGI (OVCAR-8 ovarian): 11.3 µM
- GI50 (PC-3 prostate): 2.6 µM
- TGI (PC-3 prostate): 13.8 µM
- GI50 (RPMI-8226 leukemia): 2.68 µM
- TGI (RPMI-8226 leukemia): 7.37 µM
- GI50 (RXF 393 renal): 2.43 µM
- TGI (RXF 393 renal): 4.99 µM
- GI50 (SF-268 CNS): 3.43 µM
- TGI (SF-268 CNS): 13.4 µM
- GI50 (SF-295 CNS): 1.75 µM
- TGI (SF-295 CNS): 3.29 µM
- GI50 (SF-539 CNS): 2.04 µM
- TGI (SF-539 CNS): 3.92 µM
- GI50 (SK-MEL-2 melanoma): 2.35 µM
- TGI (SK-MEL-2 melanoma): 5.3 µM
- GI50 (SK-MEL-28 melanoma): 2.19 µM
- TGI (SK-MEL-28 melanoma): 5.09 µM
- GI50 (SK-MEL-5 melanoma): 1.76 µM
- TGI (SK-MEL-5 melanoma): 3.22 µM
- GI50 (SK-OV-3 ovarian): 4.53 µM
- TGI (SK-OV-3 ovarian): 13.6 µM
- GI50 (SN12C renal): 1.79 µM
- TGI (SN12C renal): 3.5 µM
- GI50 (SNB-19 CNS): 3.94 µM
- TGI (SNB-19 CNS): 16.9 µM
- GI50 (SNB-75 CNS): 2.1 µM
- TGI (SNB-75 CNS): 9.15 µM
- GI50 (SR leukemia): 3.37 µM
- TGI (SR leukemia): 39.3 µM
- GI50 (SW-620 colon): 3.35 µM
- TGI (SW-620 colon): 13.1 µM
- GI50 (T-47D breast): 3.35 µM
- TGI (T-47D breast): 10.3 µM
- GI50 (TK-10 renal): 3.84 µM
- TGI (TK-10 renal): 12.2 µM
- GI50 (U251 CNS): 2.89 µM
- TGI (U251 CNS): 10.6 µM
- GI50 (UACC-257 melanoma): 2.56 µM
- TGI (UACC-257 melanoma): 8.12 µM
- GI50 (UACC-62 melanoma): 1.76 µM
- TGI (UACC-62 melanoma): 3.68 µM
- GI50 (UO-31 renal): 1.76 µM
- TGI (UO-31 renal): 4.35 µM
